Columns and labels:
[1] = test system: Glo-Response ARE-luc2P HEK293 cell line; assay: ARE luciferase reporter cell-based assay; details: Homo sapiens, HEK293, 24 h, average of results obtained;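 also: luciferase signal tracks Nrf2 activation of the ARE once compounds disrupt KEAP1-Nrf2 binding, read with One-Glo reagent, DMSO serving as low control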
[2] = target: Kelch domain of human KEAP1 (321-624 aa) (Homo sapiens (Human), UniProt Q14145); assay: KEAP1 KELCH ThermoFluor binding assay; details: KEAP Kelch […], 1,8-ANS, pH 7.0, average of results obtained, read-out: Tf Kd;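 also: Ligand-induced melting temperature shift of E. coli-expressed KEAP1 Kelch protein, Kd estimated from concentration-response curves of ΔTm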
Kelch domain of human KEAP1 (321-624 aa), sequence (Q14145 321-624): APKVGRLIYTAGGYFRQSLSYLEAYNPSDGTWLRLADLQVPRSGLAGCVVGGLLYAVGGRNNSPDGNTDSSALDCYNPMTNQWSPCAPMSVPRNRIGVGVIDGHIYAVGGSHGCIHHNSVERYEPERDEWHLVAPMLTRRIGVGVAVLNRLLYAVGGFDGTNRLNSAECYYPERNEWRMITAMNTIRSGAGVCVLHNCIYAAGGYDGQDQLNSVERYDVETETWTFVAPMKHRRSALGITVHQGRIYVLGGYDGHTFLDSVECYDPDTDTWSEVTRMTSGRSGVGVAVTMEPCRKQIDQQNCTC

SMILES	EC50 [1] [µM]	Kd [2] [µM]
Cc1cnc2c(c1)S(=O)(=O)N(Cc1cc([C@H](c3ccn4c(C(F)(F)F)nnc4c3C)C(C)(C)C(=O)O)ncc1C)CC1(CC1)O2 (single isomer, unassigned) [Example 589, (*R)-2,2-Dimethyl-3-(8-methyl-3-(trifluoromethyl)-[1,2,4]triazolo[4,3-a]pyridin-7-yl)-3-(5-methyl-4-((8′-methyl-1′,1′-dioxidospiro[cyclopropane-1,4′-pyrido[2,3-b][1,4,5]oxathiazepin]-2′(3′H)-yl)methyl)pyridin-2-yl)propanoic Acid]	1.97	1.45
Cc1ccc(C(CC(=O)O)c2ccn3c(C(F)(F)F)nnc3c2C)nc1CN1C[C@@H]2CCCCN2c2ncccc2S1(=O)=O (stereo in doubt) [Example 478, 3-(6-(((*S)-5,5-Dioxido-7,7a,8,9,10,11-hexahydro-6H-dipyrido[2,1-d:2′,3′-f][1,2,5]thiadiazepin-6-yl)methyl)-5-methylpyridin-2-yl)-3-(8-methyl-3-(trifluoromethyl)-[1,2,4]triazolo[4,3-a]pyridin-7-yl)propanoic Acid]	0.0576	< 0.001
Cc1cnc2c(c1)S(=O)(=O)N(Cc1cc([C@@H](c3ccn4c(C(F)F)nnc4c3C)C(C)(C)C(=O)O)ccc1C)CC1(CCOCC1)O2 (single isomer, unassigned) [Example 576, (*S)-3-(3-(Difluoromethyl)-8-methyl-[1,2,4]triazolo[4,3-a]pyridin-7-yl)-2,2-dimethyl-3-(4-methyl-3-((8′-methyl-1′,1′-dioxido-2,3,5,6-tetrahydrospiro[pyran-4,4′-pyrido[2,3-b][1,4,5]oxathiazepin]-2′(3′H)-yl)methyl)phenyl)propanoic Acid]	0.00234	< 0.001
CCn1nnc2c(C)c([C@H](CC(=O)O)c3ccc(C)c(CN4C[C@@H]5CCCCN5c5ncccc5S4(=O)=O)n3)ccc21 (single isomer, unassigned) [Example 302, (*S)-3-(6-(((*S)-5,5-Dioxido-7,7a,8,9,10,11-hexahydro-6H-dipyrido[2,1-d:2′,3′-][1,2,5]thiadiazepin-6-yl)methyl)-5-methylpyridin-2-yl)-3-(1-ethyl-4-methyl-1H-benzo[d][1,2,3]triazol-5-yl)propanoic Acid]	0.0028	< 0.001
Cc1ccc([C@H](c2ccc3c(nnn3CC3CC3)c2C)C(C)(C)C(=O)O)nc1CN1CC2(CCOCC2)Oc2nc(OCCN3CCOCC3)ccc2S1(=O)=O (single isomer, unassigned) [Example 329, (*R)-3-(1-(Cyclopropylmethyl)-4-methyl-1H-benzo[d][1,2,3]triazol-5-yl)-2,2-dimethyl-3-(5-methyl-6-((7′-(2-morpholinoethoxy)-1′,1′-dioxido-2,3,5,6-tetrahydrospiro[pyran-4,4′-pyrido[2,3-b][1,4,5]oxathiazepin]-2′(3′H)-yl)methyl)pyridin-2-yl)propanoic Acid]	1.9	1.88
Cc1ccc(C(CC(=O)O)c2ccn3c(C(F)F)nnc3c2C)cc1CN1C[C@@H]2CCCN2c2ncc(C#N)cc2S1(=O)=O (mixture of isomers) [Example 542, 3-(3-(((S)-3-Cyano-5,5-dioxido-7a,8,9,10-tetrahydropyrido[2,3-f]pyrrolo[2,1-d][1,2,5]thiadiazepin-6(7H)-yl)methyl)-4-methylphenyl)-3-(3-(difluoromethyl)-8-methyl-[1,2,4]triazolo[4,3-a]pyridin-7-yl)propanoic Acid]	0.0597	< 0.001
Cc1ccc([C@H](CC(=O)O)c2ccn3c(C(F)(F)F)nnc3c2)cc1CN1C[C@@H]2CCCN2c2ncccc2S1(=O)=O (single isomer, unassigned) [Example 254, (*S)-3-(3-(((S)-5,5-Dioxido-7a,8,9,10-tetrahydropyrido[2,3-f]pyrrolo[2,1-d][1,2,5]thiadiazepin-6(7H)-yl)methyl)-4-methylphenyl)-3-(3-(trifluoromethyl)-[1,2,4]triazolo[4,3-a]pyridin-7-yl)propanoic Acid]	3.4	< 0.001
Cc1ccc([C@@H](CC(=O)O)c2ccn3c(C(F)(F)F)nnc3c2C)cc1CN1C[C@@H]2CCC(F)(F)CN2c2ncccc2S1(=O)=O (single isomer, unassigned) [Example 455, (*R)-3-(3-(((*S)-10,10-Difluoro-5,5-dioxido-7,7a,8,9,10,11-hexahydro-6H-dipyrido[2,1-d:2′,3′-f][1,2,5]thiadiazepin-6-yl)methyl)-4-methylphenyl)-3-(8-methyl-3-(trifluoromethyl)-[1,2,4]triazolo[4,3-a]pyridin-7-yl)propanoic Acid]	0.798	< 0.001
CC[C@@H]1CN(Cc2cc([C@@H](CC(=O)O)c3cc(OC(F)F)c4c(c3)nnn4C)ccc2C)S(=O)(=O)c2cccnc2O1 (single isomer, unassigned) [Example 251, (*R)-3-(7-(Difluoromethoxy)-1-methyl-1H-benzo[d][1,2,3]triazol-5-yl)-3-(3-(((R)-4-ethyl-1,1-dioxido-3,4-dihydro-2H-pyrido[2,3-b][1,4,5]oxathiazepin-2-yl)methyl)-4-methylphenyl)propanoic Acid]	0.0241	< 0.001
Cc1ccc([C@H](CC(=O)O)c2ccc3c(nnn3CC3CC3)c2C(F)F)cc1CN1C[C@H]2CCCCN2c2ncccc2S1(=O)=O (single isomer, unassigned) [Example 170, (*S)-3-(1-(Cyclopropylmethyl)-4-(difluoromethyl)-1H-benzo[d][1,2,3]triazol-5-yl)-3-(3-(((*R)-5,5-dioxido-7,7a,8,9,10,11-hexahydro-6H-dipyrido[2,1-d:2′,3′-f][1,2,5]thiadiazepin-6-yl)methyl)-4-methylphenyl)propanoic Acid]	0.11	< 0.001
Cc1ccc([C@H](CC(=O)O)c2ccn3c(C4CC4)nnc3c2C)cc1CN1C[C@H]2CCCN2c2ncccc2S1(=O)=O (single isomer, unassigned) [Example 168, (*S)-3-(3-Cyclopropyl-8-methyl-[1,2,4]triazolo[4,3-a]pyridin-7-yl)-3-(3-(((R)-5,5-dioxido-7a,8,9,10-tetrahydropyrido[2,3-f]pyrrolo[2,1-d][1,2,5]thiadiazepin-6(7H)-yl)methyl)-4-methylphenyl)propanoic Acid]	0.48	< 0.001
Cc1cc2c(nc1OCCN1CCCC1)OC1(CC1)CN(Cc1cc([C@H](c3ccc4c(nnn4C4CC4)c3C)C(C)(C)C(=O)O)cnc1C)S2(=O)=O (single isomer, unassigned) [Example 628, (*S)-3-(1-Cyclopropyl-4-methyl-1H-benzo[d][1,2,3]triazol-5-yl)-2,2-dimethyl-3-(6-methyl-5-((8′-methyl-1′,1′-dioxido-7′-(2-(pyrrolidine-1-yl)ethoxy)spiro[cyclopropane-1,4′-pyrido[2,3-b][1,4,5]]oxathiazepin]-2′(3′H)-yl)methyl)pyridine-3-yl)propanoic Acid]	> 20	15.4
Cc1cnc2c(c1)S(=O)(=O)N(Cc1cc([C@@H](c3ccn4c(C5CC5)nnc4c3C)C(C)(C)C(=O)O)ccc1C)CC1(CC1)O2 (single isomer, unassigned) [Example 392, (*S)-3-(3-Cyclopropyl-8-methyl-[1,2,4]triazolo[4,3-a]pyridin-7-yl)-2,2-dimethyl-3-(4-methyl-3-((8′-methyl-1′,1′-dioxidospiro[cyclopropane-1,4′-pyrido[2,3-b][1,4,5]oxathiazepin]-2′(3′H)-yl)methyl)phenyl)propanoic Acid]	0.0113	< 0.001

— patent US10947252B2, “Inhibitors of KEAP1-Nrf2 protein-protein interaction” (Janssen Pharmaceutica NV, priority 2018, dated 2021)
